Experimental data: US20240009170A1, “INHIBITION OF GLYCOGEN SYNTHASE KINASE-3 (GSK-3)” (Brown University, priority 2020, published 2024)
Entries after “also recorded” stand apart in the source; their conditions may differ.

Tests used:
SW480 tumor cells = test: Co-culture of CD8+ donor-derived healthy T cells and SW480 tumor cells; format: cell-based, Human
Protocol: (§1) Isolation of donor derived CD8+ T cells. An Easy Step Human CD8+ T Cell Isolation Kit was used to isolated CD8+ T cells from a donor PBMC sample via negative selection (Cat #, 17913, Stem Cell Technologies, Vancouver, Canada).
(§2) Immune cell co-culture experiments. Co-culture experiments were conducted with GFP+ SW480 or HCT-116 colorectal cancer cells and either NK-92 natural killer cells or TALL-104 T cells in a 48-well plate, in the presence or absence of 9-ING-41. HCT-116 cells were labeled using CellTracker™ Green CMFDA (5-chloromethylfluorescein diacetate), immune cells (NK-92, TALL-104) were labeled using CellTracker™ Blue CMAC Dye (7-amino-4-chloromethylcoumarin), and ethidium homodimer-1 (EthD-1) was used as a marker of cell death (Invitrogen, Thermo Fisher Scientific, Waltham, MA, USA).
TALL-104 cells are a human leukemic T cell line. […] Healthy CD8+ T cells were isolated from a donor blood sample consistent with an IRB-approved protocol. A co-culture of GFP+ SW480 tumor cells and Green CM FDA-labeled CD8+ donor-derived healthy T cells was then treated with 9-ING-41 and the % of dead cells out of total cells was quantified after twenty-four hours. […] The data was then normalized, as described earlier.
Pre-treatment with 9-ING-41 sensitizes SW480 tumor cells to immune cell-mediated cell killing. […]

colorectal cancer cells = test: Co-culture with pre-treatment of effector or target cell population; format: cell-based, Human; conditions: target cells pre-treated before co-culture
Protocol: Co-culture experiments were conducted with GFP+ SW480 colorectal cancer cells and either NK-92 natural killer cells or TALL-104 T cells at various effector/target ratios in a 48-well plate, in the presence or absence of 9-ING-41. Follow-up experiments compared the effect of pre-treating either the effector or the target cell population with 9-ING-41 before the co-culture experiment was started.

[1] = system: HCT-116 colorectal cancer cells; test: Co-culture of HCT-116 and TALL-104 cells with or without αPD-1 therapy; format: cell-based, Human; conditions: compared with the other culture conditions
Protocol: as §2
9-ING-41 increases tumor cell death in combination with αPD-1 therapy in a co-culture of HCT-116 colorectal cancer cells and immune cells. The inventors were interested in the applicability of GS3K-3 inhibitors such as 9-ING-41 in combination with immune checkpoint blockade. The inventors next performed co-cultures of immune cells (TALL-104, NK-92) and tumor cells (HCT-116) in the presence or absence of 9-ING-41, as well as either pembrolizumab® or nivolumab®, two humanized monoclonal antibodies against PD-1. The inventors evaluated HCT-116 cells in this co-culture model to determine if the 9-ING-41-mediated increase in immune cell-mediated SW480 cell killing could be reproduced in another colorectal cancer cell line.

[2] = system: HCT-116 colorectal cancer cells; test: Co-culture of HCT-116 and NK-92 cells with or without αPD-1 therapy; format: cell-based, Human; conditions: 9-ING-41+NK-92
Protocol: as §2

[3] = system: healthy donor-derived CD8+ T cells; test: Cytokine profile of immune cell culture supernatant, donor-derived CD8+ T cells; format: cell-based, Human; conditions: 1 μM, 48 hours
Protocol: as §1
Collection of cell culture supernatants used in cytokine measurements. Cells were plated at 3.5×10^4 cells in a 48-well plate (Thermo Fisher Scientific, Waltham, MA, USA) in complete medium and incubated at 37° C. with 5% CO2. At twenty-four hours after plating, almost all the tumor cells were adherent to the bottom of the flask and the complete medium was replaced with drug-containing medium. Subsequently, the culture supernatants were collected after forty-eight hours of incubation and were frozen at −80° C. until the measurement of cytokines was performed. The day of analysis, samples were thawed and centrifuged to remove cellular debris.
Human cytokine profiling. Human cell line culture supernatants were analyzed using an R&D systems Human Premixed Multi-Analyte Kit (R&D Systems, Inc., Minneapolis, MN, USA) and a Luminex 200 Instrument (LX200-XPON-RUO, Luminex Corporation, Austin, TX, USA) according to the manufacturer's instructions. […]
9-ING-41 increases secreted cytotoxic proteins IFN-v, Granzyme B, and TRAIL in immune cells. […] Here, the inventors determined how 9-ING-41 treatment impacts the immune cell cytokinome. […]

[4] = in vivo; cited from earlier work
[5] = system: prostate cancer cell lines; conditions: cited from earlier work
CT-26 = test: Syngeneic murine colon carcinoma BALB/c model with MSS cell line CT-26, survival and response; conditions: mouse, in vivo
Protocol: In vivo studies. […] Six to seven weeks old male BALB/c mice were purchased from Taconic. […] 100 μL was injected subcutaneously into the rear flanks. Once tumor volume reached at least 100 mm3, mice were randomly assigned to one of four groups (three mice/group): vehicle, ONC212, 2-DG, combination of ONC212 p2-DG. ONC212 was delivered by oral gavage at the dosage of 50 mg/kg in a solution of 70% phosphate-buffered serum, 10% DMSO, and 20% Kolliphor EL (Sigma-Aldrich, catalog no. C5135), three times per week. The treatment continued until mice developed signs of toxicity or discomfort from excessive tumor growth. Mice were weighed once a week to monitor signs of drug toxicity. The length (L) and width (VV) of the masses were measured three times per week with a digital caliper. The tumor volume was calculated applying the formula: 0.5LW2.
To evaluate the potential for 9-ING-41 to increase efficacy of immune checkpoint blockade, the inventors used a syngeneic murine colon carcinoma BALB/c murine model with a microsatellite stable (MSS) cell line CT-26.

Which “tumor cell death in co-cultures with CD8+ donor-derived healthy T cells” value (SW480 tumor cells; 24 hours, normalized) does the source give for Cn1cc(C2=C(c3coc4ccc(F)cc34)C(=O)NC2=O)c2cc3c(cc21)OCO3 [9-ING-41] here?
The value was “Even more impressive tumor cell death”.

What about the “tumor cell death after tumor cell pre-treatment, CD8+ T cells” value (SW480 tumor cells; pre-treatment of tumor cells, 24 hours of co-culture) of the same compound?
Its value is “statistically significant increase in tumor cell death”.

What about the “cell-killing after pre-treatment of the target tumor cells” value (colorectal cancer cells) of the same compound?
The value was “bolstered cell-killing”.

And the “cell death after twenty-four hours of co-culture with TALL-104” value [1]?
The value was “even greater amount of cell death”.

And the “benefit over combination αPD-1 therapy+NK-92 only groups” value [2]?
Its value is “significant benefit”.

And the “all three cytotoxic molecules (IFN-γ, granzyme B, TRAIL)” value [3]?
Its value is “increases”.

And the blood brain barrier [4]?
Its blood brain barrier is “crosses the blood brain barrier”.

And the “expression of PD-L1” value [5]?
The value was “regulated the expression of PD-L1”.

What about the “survival compared to control group” value (CT-26) of the same compound?
The value was “statistically significant improved survival; also recorded: prolonged the survival”.
